# Target: T1, Rac1 (Homo sapiens, UniProt P63000)
# T1 construct: endogenous in cells; host or cells: human CD34+ umbilical cord blood cells (HCB)
# Test: Rho GTPase effector pulldown in human CD34+ umbilical cord blood cells, Rac1
# Format: cell-based
# Conditions: human CD34^+ HCBs
# Protocol: To begin to study potential utility of CASIN in human hematopoietic stem cell mobilization, a series of cellular assays were carried out to determine the effects on human CD34^+ umbilical cord blood cells (HCBs). […] The effects of CASIN on human hematopoietic cell mobilization was therefore tested using a well established preclinical in vivo model (NOD/SCID-Hcb) of human hematopoietic function, where fresh CD34^+ hCB cells were transplanted into sub-lethally irradiated NOD/SCIDs by intrafemoral injection, and repopulated and maintained human hematopoietic reconstitution in the bone marrow of NOD/SCID recipient mice (FIG. 9b, FIG. 11) (Larochelle, A. et al. Nat Med 2, 1329-1337 (1996); Bhatia, M., et al. Proc Natl Acad Sci USA 94, 5320-5325 (1997)). Intravenous injections of CASIN were applied when human cells were well engrafted in the NOD/SCID recipients.
# To analyze the effects of CASIN on the formation of active GTP-bound Cdc42, RhoA, and Rac1, effector pulldown assays were carried out as described previously. Cdc42GAP^−/− MEF, LDBM, CD34^+ hCB cells were treated with CASIN at doses of 5-20 μM in parallel with vehicle control for 2 hrs after overnight starvation, and stimulated with cytokines subsequently. […]
smiles,measurement,value
OCCNC1CCCc2c1[nH]c1ccc(-c3ccccc3)cc21 (stereo not shown) [CASIN],Rac1 activity,without affecting

# Source: US9433663B2, “Mobilization of hematopoietic stem cells” (Children's Hospital Medical Center, priority 2008, dated 2016)
